Test results published in ChEMBL document CHEMBL2046361, “Ianthelliformisamines A-C, antibacterial bromotyrosine-derived metabolites from the marine sponge Suberea ianthelliformis” (J Nat Prod, 2012).
In brackets after ≈: the same amount, converted by molar mass. Activity calls are given as the source filed them. The calls are words filed in the database; no cut-off is given here.

Tests used:
Pseudomonas aeruginosa [1] = experiment: Antimicrobial activity against Pseudomonas aeruginosa PAO1 assessed as inhibition of cell viability after 18 hrs by spectrophotometry; assay type: functional, organism-based; conditions: PAO1, 18 h
Staphylococcus aureus [2] = experiment: Antimicrobial activity against Staphylococcus aureus 01A1095 assessed as inhibition of cell viability after 18 hrs by spectrophotometry; assay type: functional, organism-based; conditions: 01A1095, 18 h
Pseudomonas aeruginosa [3] = experiment: Antimicrobial activity against Pseudomonas aeruginosa PAO1 assessed as inhibition of cell viability at 87.5 uM after 18 hrs by spectrophotometry; assay type: functional; conditions: PAO1, 18 h
Pseudomonas aeruginosa [4] = experiment: Antimicrobial activity against Pseudomonas aeruginosa PAO1 assessed as inhibition of cell viability at 350 uM after 18 hrs by spectrophotometry; assay type: functional, organism-based
Staphylococcus aureus [5] = experiment: Antimicrobial activity against Staphylococcus aureus 01A1095 assessed as inhibition of cell viability at 350 uM after 18 hrs by spectrophotometry; assay type: functional, organism-based
Staphylococcus aureus [6] = experiment: Antimicrobial activity against Staphylococcus aureus 01A1095 assessed as inhibition of cell viability at 175 uM after 18 hrs by spectrophotometry; assay type: functional; conditions: 01A1095, 18 h
Pseudomonas aeruginosa [7] = experiment: Antimicrobial activity against Pseudomonas aeruginosa PAO1 assessed as inhibition of cell viability at 175 uM after 18 hrs by spectrophotometry; assay type: functional; conditions: PAO1, 18 h
Staphylococcus aureus [8] = experiment: Antimicrobial activity against Staphylococcus aureus 01A1095 assessed as inhibition of cell viability at 87.5 uM after 18 hrs by spectrophotometry; assay type: functional; conditions: 01A1095, 18 h

Row | Compound | IC50 (Pseudomonas aeruginosa [1]) [µM] | MIC (Pseudomonas aeruginosa [1]) [µM] | IC50 (Staphylococcus aureus [2]) [µM] | other results
1 | COc1c(Br)cc(/C=C/C(=O)NCCCNCCCCNCCCNC(=O)/C=C/c2cc(Br)c(OC)c(Br)c2)cc1Br [IANTHELLIFORMISAMINE C] | 8.9 | 17.5 (≈ 14.7 µg/mL) | 4.1 | MIC (Staphylococcus aureus [2]): 8.75 µM (≈ 7.33 µg/mL)
2 | COc1c(Br)cc(/C=C/C(=O)NCCCNCCCCN)cc1Br [IANTHELLIFORMISAMINE B] |  |  |  | inhibition at 87.5 µM (Pseudomonas aeruginosa [3]): 80%
3 | CN(C)CCCOc1c(Br)cc(CCN(C)C)cc1Br |  |  |  | inhibition (Pseudomonas aeruginosa [4]): inactive; inhibition (Staphylococcus aureus [5]): inactive
4 | COc1c(Br)cc(/C=C/C(=O)NCCCNCCCCNCCCN)cc1Br [IANTHELLIFORMISAMINE A] | 6.8 | 35 (≈ 18.2 µg/mL) |  | inhibition at 175 µM (Staphylococcus aureus [6]): 77%
5 | COC1=C(Br)[C@H](O)[C@@]2(C=C1Br)CC(C(=O)NCCCOc1c(Br)cc(CCN)cc1Br)=NO2 [ARAPLYSILLIN I] |  |  |  | inhibition at 175 µM (Pseudomonas aeruginosa [7]): 65%; inhibition at 87.5 µM (Staphylococcus aureus [8]): 60%
6 | O=C(O)c1cn(C2CC2)c2cc(N3CCNCC3)c(F)cc2c1=O [CIPROFLOXACIN] | 0.038 |  | 125 | 
